Biological target: T1, ΔF508-CFTR (Homo sapiens, UniProt P13569, DEL508-508)
T1 construct: expressed in transfected cells
Assay: Membrane potential optical assay (FRET/VIPR), identification of correction compounds
Assay type: cell-based
Details: for Emax: relative efficacy
Procedure, shortened: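 Corrector screen: FRET voltage-sensor dyes (CC2-DMPE donor, DiSBAC2(3)) report Cl^− efflux-driven depolarization after 10 μM forskolin and 20 μM genistein in Cl^−-free medium. Beforehand, ΔF508-CFTR NIH3T3 fibroblasts received compound for 16 hrs at 37° C; temperature-corrected cells (27° C) served as positive control.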

T1 sequence (P13569 with tags, fused parts or gaps DEL508-508): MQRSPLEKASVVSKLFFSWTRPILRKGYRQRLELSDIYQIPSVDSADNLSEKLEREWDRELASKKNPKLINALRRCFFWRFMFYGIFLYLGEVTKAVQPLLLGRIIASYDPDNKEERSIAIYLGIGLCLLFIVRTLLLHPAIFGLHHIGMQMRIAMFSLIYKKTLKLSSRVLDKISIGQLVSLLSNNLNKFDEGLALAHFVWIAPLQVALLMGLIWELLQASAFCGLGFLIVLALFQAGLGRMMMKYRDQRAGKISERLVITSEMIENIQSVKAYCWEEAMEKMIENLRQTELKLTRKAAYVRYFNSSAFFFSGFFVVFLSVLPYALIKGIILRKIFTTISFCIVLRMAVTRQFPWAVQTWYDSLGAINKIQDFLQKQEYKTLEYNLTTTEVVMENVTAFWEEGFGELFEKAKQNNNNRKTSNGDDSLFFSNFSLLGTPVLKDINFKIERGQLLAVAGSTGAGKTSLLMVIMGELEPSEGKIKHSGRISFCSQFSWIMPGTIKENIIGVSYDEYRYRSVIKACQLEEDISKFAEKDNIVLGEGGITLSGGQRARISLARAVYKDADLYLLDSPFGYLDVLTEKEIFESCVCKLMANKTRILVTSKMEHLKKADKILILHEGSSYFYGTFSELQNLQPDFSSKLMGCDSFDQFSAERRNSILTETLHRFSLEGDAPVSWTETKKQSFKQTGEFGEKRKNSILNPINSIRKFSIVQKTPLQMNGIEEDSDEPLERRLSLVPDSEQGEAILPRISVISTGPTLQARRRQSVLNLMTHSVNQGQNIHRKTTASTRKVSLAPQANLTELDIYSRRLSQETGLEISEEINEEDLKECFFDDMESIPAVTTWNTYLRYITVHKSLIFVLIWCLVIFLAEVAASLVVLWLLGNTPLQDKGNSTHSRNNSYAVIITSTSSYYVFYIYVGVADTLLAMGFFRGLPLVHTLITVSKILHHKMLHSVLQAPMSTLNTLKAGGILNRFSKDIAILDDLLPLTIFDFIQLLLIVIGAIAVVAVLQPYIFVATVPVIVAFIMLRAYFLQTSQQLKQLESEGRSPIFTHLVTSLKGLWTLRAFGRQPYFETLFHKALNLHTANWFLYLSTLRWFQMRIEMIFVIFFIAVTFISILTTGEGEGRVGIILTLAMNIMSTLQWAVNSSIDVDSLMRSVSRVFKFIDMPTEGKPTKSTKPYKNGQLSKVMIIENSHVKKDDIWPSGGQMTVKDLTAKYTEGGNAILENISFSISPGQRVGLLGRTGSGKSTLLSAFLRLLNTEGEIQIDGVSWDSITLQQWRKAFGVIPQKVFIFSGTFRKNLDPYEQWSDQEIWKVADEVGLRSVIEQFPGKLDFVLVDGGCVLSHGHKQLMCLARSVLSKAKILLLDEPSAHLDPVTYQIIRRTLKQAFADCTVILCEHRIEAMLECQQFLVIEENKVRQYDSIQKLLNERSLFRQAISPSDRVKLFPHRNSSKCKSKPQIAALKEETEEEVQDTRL

EC50 [µM]	Emax [%]	Compound
< 10	25 to 100	COc1ccc(S(=O)(=O)N2CCN(C(C)c3nc(N4CCCCCC4)c4ccccc4n3)CC2)cc1 (stereo not shown) [compound 319]
25 to 60	25 to 100	CC(NCCNS(=O)(=O)c1ccc(Br)cc1)c1nc2ccccc2c(=O)n1C (stereo not shown) [compound 169]
< 10	> 100	COc1ccc(S(=O)(=O)N2CCN(C(C)c3nc(OC4CCC5CC4C5)c4ccccc4n3)CC2)cc1 (stereo not shown) [compound 400]
25 to 60	> 100	CC(c1nc2ccccc2c(=O)n1C)N1CCN(S(=O)(=O)c2ccc(OC(F)F)cc2)CC1 (stereo not shown) [compound 293]
25 to 60	25 to 100	CCNc1nc(C(C)N2CCN(S(=O)(=O)c3ccc(OC)cc3)CC2)nc2ccccc12 (stereo not shown) [compound 194]
10 to 25	< 25	CC(c1nc2ccc(Cl)cc2c(=O)n1C)N1CCN(C(=O)c2cccc(Cl)c2)CC1 (stereo not shown) [compound 83]
< 10	> 100	COc1ccc(S(=O)(=O)N2CCN(C(C)c3nc(N4CCCCC4)c4ccccc4n3)CC2)cc1 (stereo not shown) [compound 302]
< 10	> 100	CC(C)Oc1nc(C(C)N2CCN(S(=O)(=O)c3ccc(Br)cc3)CC2)nc2ccccc12 (stereo not shown) [compound 217]
10 to 25	25 to 100	Cc1ccccc1C(=O)N1CCN(C(C)c2nc3ccc(Cl)cc3c(=O)n2C)CC1 (stereo not shown) [compound 15]
10 to 25	25 to 100	COc1ccc(S(=O)(=O)N2CCN(C(C)c3nc(OCCN4CCCC4)c4ccccc4n3)CC2)cc1 (stereo not shown) [compound 299]
25 to 60	25 to 100	COc1ccc(S(=O)(=O)N2CCN(C(C)c3nc(N4CCOCC4)c4ccccc4n3)CC2)cc1 (stereo not shown) [compound 196]
< 10	> 100	COc1ccc(S(=O)(=O)N2CCN(Cc3nc(OC4CCCCC4)c4ccccc4n3)CC2)cc1 [compound 385]
25 to 60	25 to 100	COc1ccc(S(=O)(=O)N2CCN(C(C)c3nc(N4CCC(CO)CC4)c4ccccc4n3)CC2)cc1 (stereo not shown) [compound 347]
10 to 25	25 to 100	CC(c1nc2ccc(Cl)cc2c(=O)n1C)N1CCN(C(=O)Nc2ccc(Cl)cc2)CC1 (stereo not shown) [compound 18]
25 to 60	25 to 100	COc1ccc(S(=O)(=O)NC2CCN(C(C)c3nc4ccccc4c(=O)n3C)CC2)cc1 (stereo not shown) [compound 164]
25 to 60	< 25	COc1ccc(S(=O)(=O)N2CCN(C(C)c3nc(N4CCC(N5CCCCC5)CC4)c4ccccc4n3)CC2)cc1 (stereo not shown) [compound 317]
25 to 60	< 25	COc1ccc(S(=O)(=O)NCCCN(C(C)c2nc3ccccc3c(=O)n2C)S(=O)(=O)c2ccc(OC)cc2)cc1 (stereo not shown) [compound 205]
10 to 25	25 to 100	CC(c1nc2ccc(Cl)cc2c(=O)n1C)N1CCN(C(=O)c2ccc(Cl)cc2)CC1 (stereo not shown) [compound 40]
< 10	> 100	COc1ccc(S(=O)(=O)N2CCN(C(C)c3nc(N(C)Cc4ccccc4)c4ccccc4n3)CC2)cc1 (stereo not shown) [compound 368]
10 to 25	< 25	CC(c1nc2ccc(C#N)cc2c(=O)n1C)N1CCN(S(=O)(=O)c2ccccc2)CC1 (stereo not shown) [compound 123]
25 to 60	< 25	COc1ccc(S(=O)(=O)N2CCN(Cc3nc4ccccc4c(=O)[nH]3)CC2)cc1 [compound 383]
10 to 25	25 to 100	CC(c1nc2ccccc2c(=O)n1C)N1CCN(S(=O)(=O)c2ccc(Cl)s2)CC1 (stereo not shown) [compound 260]

EC50 [µM]	Emax [%]	Compound
25 to 60	25 to 100	CC(=O)NCCn1c(C(C)N2CCN(S(=O)(=O)c3ccc(Br)cc3)CC2)nc2ccccc2c1=O (stereo not shown) [compound 287]
10 to 25	< 25	CC(c1nc2ccccc2c(=O)n1C)N1CCN(S(=O)(=O)c2ccc(-c3csnn3)s2)CC1 (stereo not shown) [compound 280]
25 to 60	< 25	CC(c1nc2ccccc2c(=O)n1C)N1CCN(S(=O)(=O)c2ccc(C(N)=O)cc2)CC1 (stereo not shown) [compound 291]
10 to 25	25 to 100	COc1ccc2nc(C(C)N3CCN(S(=O)(=O)c4ccc(C)cc4)CC3)n(C)c(=O)c2c1 (stereo not shown) [compound 134]
25 to 60	< 25	CC(c1nc2ccc(Cl)cc2c(=O)n1C)N1CCN(C(=O)c2ccccc2)CC1 (stereo not shown) [compound 38]
10 to 25	25 to 100	Cc1ccccc1S(=O)(=O)N1CCN(C(C)c2nc3ccc(Cl)cc3c(=O)n2C)CC1 (stereo not shown) [compound 80]
25 to 60	< 25	Cc1nn(C)c(Cl)c1S(=O)(=O)N1CCN(C(C)c2nc3ccccc3c(=O)n2C)CC1 (stereo not shown) [compound 257]
25 to 60	25 to 100	CC(c1nc2ccccc2c(=O)n1C)N1CCN(S(=O)(=O)c2ccc(F)cc2)CC1 (stereo not shown) [compound 10]
< 10	> 100	COc1ccc(S(=O)(=O)N2CCN(C(C)c3nc(NC4CCCC4)c4ccccc4n3)CC2)cc1 (stereo not shown) [compound 303]
< 10	25 to 100	COc1ccc(S(=O)(=O)N2CCN(C(C)(C)c3nc4ccc(Cl)cc4c(=O)n3C)CC2)cc1 [compound 149]
25 to 60	25 to 100	CCCn1c(C(C)N2CCN(C(=O)Nc3ccc(F)cc3F)CC2)nc2ccccc2c1=O (stereo not shown) [compound 24]
10 to 25	25 to 100	CC(c1nc2ccc(C(N)=O)cc2c(=O)n1C)N1CCN(S(=O)(=O)c2ccc(Br)cc2)CC1 (stereo not shown) [compound 156]
25 to 60	< 25	COc1ccc(S(=O)(=O)NC2CCN(C(C)c3nc4ccccc4c(=O)n3C)C2)cc1 (stereo not shown) [compound 161]
25 to 60	25 to 100	CC(c1nc2ccccc2c(=O)n1C)N(C)C1CCN(S(=O)(=O)c2ccc(Cl)cc2)CC1 (stereo not shown) [compound 315]
< 10	25 to 100	CC(c1nc2ccccc2c(=O)n1C)N1CCC(NS(=O)(=O)c2ccc(Cl)cc2)CC1 (stereo not shown) [compound 165]
25 to 60	< 25	CCc1nc2ccccc2c(=O)n1C [compound 87]
25 to 60	25 to 100	COc1ccc(S(=O)(=O)N2CCN(C(C)c3nc(OCC4COCO4)c4ccccc4n3)CC2)cc1 (stereo not shown) [compound 294]
< 10	> 100	COc1ccc(S(=O)(=O)N2CCN(C(C)c3nc(N4CCCC4C)c4ccccc4n3)CC2)cc1 (stereo not shown) [compound 325]
25 to 60	25 to 100	CC(c1nc2ccccc2c(=O)n1C)N1CCN(S(=O)(=O)c2ccccc2)CC1 (stereo not shown) [compound 68]
< 10	> 100	CC(c1nc2ccc(N)cc2c(=O)n1C)N1CCN(S(=O)(=O)c2ccc(Br)cc2)CC1 (stereo not shown) [compound 146]
10 to 25	< 25	CC(c1nc2ccccc2c(=O)[nH]1)N1CCN(S(=O)(=O)c2ccccc2)CC1 (stereo not shown) [compound 128]
< 10	25 to 100	CC(c1nc2ccccc2c(=O)n1C)N1CCN(S(=O)(=O)c2csc3ccccc23)CC1 (stereo not shown) [compound 272]

EC50 [µM]	Emax [%]	Compound
< 10	> 100	CCCn1c(C(C)N2CCN(S(=O)(=O)c3ccc(Br)cc3)CC2)nc2ccccc2c1=O (stereo not shown) [compound 27]
25 to 60	25 to 100	CNc1nc(C(C)N2CCN(S(=O)(=O)c3ccc(Br)cc3)CC2)nc2ccccc12 (stereo not shown) [compound 219]
25 to 60	< 25	CC(=O)Nc1ccc(S(=O)(=O)N2CCN(C(C)c3nc4ccccc4c(=O)n3C)CC2)cc1 (stereo not shown) [compound 230]
10 to 25	25 to 100	CCCn1c(C(C)N2CCN(S(=O)(=O)c3ccccc3)CC2)nc2ccccc2c1=O (stereo not shown) [compound 19]
25 to 60	< 25	CC(NC1CCNCC1)c1nc2ccccc2c(=O)n1C (stereo not shown) [compound 179]
< 10	> 100	Cc1ccc(S(=O)(=O)N2CCN(C(C)c3nc4cc(Cl)ccc4c(=O)n3C)CC2)cc1 (stereo not shown) [compound 92]
25 to 60	< 25	CCCOc1nc(CC)nc2ccccc12 [compound 158]
25 to 60	< 25	CCCn1c(C(C)OCC)nc2ccccc2c1=O (stereo not shown) [compound 89]
< 10	> 100	CC(c1nc(OC2CCCC2)c2ccccc2n1)N1CCN(S(=O)(=O)c2ccc(Cl)cc2)CC1 (stereo not shown) [compound 231]
10 to 25	< 25	COc1ccc(S(=O)(=O)N2CCN(C(C)c3nc4ccccc4c(=O)[nH]3)CC2)cc1 (stereo not shown) [compound 130]
10 to 25	< 25	Cc1ccc(C(=O)N2CCN(C(C)c3nc4ccccc4c(=O)n3C)CC2)cc1 (stereo not shown) [compound 74]
25 to 60	25 to 100	COc1cc2nc(C(C)N3CCN(S(=O)(=O)c4ccc(C)cc4)CC3)n(C)c(=O)c2cc1OC (stereo not shown) [compound 286]
< 10	> 100	CCCOc1nc(C(C)N2CCN(S(=O)(=O)c3ccc(Br)cc3)CC2)nc2ccccc12 (stereo not shown) [compound 216]
10 to 25	25 to 100	COc1ccc(S(=O)(=O)N2CCN(Cc3nc4ccc(Cl)cc4c(=O)n3C)CC2)cc1 [compound 137]
25 to 60	25 to 100	COc1ccc(S(=O)(=O)N2CCN(C(C)c3ncc(C(=O)N(C)C)c(N4CCCCC4)n3)CC2)cc1 (stereo not shown) [compound 358]
< 10	> 100	COc1ccc(S(=O)(=O)N2CCN(C(C)c3nc(N4CCCCC4)c4cc(F)ccc4n3)CC2)cc1 (stereo not shown) [compound 371]
25 to 60	< 25	COc1ccc(S(=O)(=O)N2CCC(NC(C)c3nc4ccccc4c(=O)n3C)C2)cc1 (stereo not shown) [compound 224]
25 to 60	< 25	CC(=O)N1CCN(C(C)c2nc3ccc(Cl)cc3c(=O)n2C)CC1 (stereo not shown) [compound 60]
10 to 25	25 to 100	COc1ccc(S(=O)(=O)N2CCN(C(C)c3nc(N4CCCC4)c4ccccc4n3)CC2)cc1 (stereo not shown) [compound 333]
10 to 25	> 100	CCOc1nc(C(C)N2CCN(S(=O)(=O)c3ccc(OC)cc3)CC2)nc2ccccc12 (stereo not shown) [compound 188]
25 to 60	25 to 100	CC(c1nc2ccccc2c(=O)n1C)N1CCN(C(=O)c2ccc(C(F)(F)F)cc2)CC1 (stereo not shown) [compound 54]
